Measurements from patent publication US8642834B2, “Methods for the identification of agents that inhibit mesenchymal-like tumor cells or their formation” (OSI Pharmaceuticals, LLC, priority 2009, dated 2014).

Tested on: CFPAC1 cells
Assay: Transcriptional changes to EMT genes, qPCR
Type: cell-based, human
Experimental: The CFPAC1 cell line was cultured in DMEM media (Gibco #11960) supplemented with 10% FBS (Sigma), 2 mM L Glutamine (Gibco), at 37° C., 5% CO2. For 7 day treatments, cells were seeded on tissue culture plastic in complete growth media and allowed to attach overnight at cell densities that would provide approximately 60-80% confluence at end of experiment. Ligand and/or inhibitor was added the following day (Day 0) in complete growth media and incubated at 37° C., 5% CO2. Ligand source and concentrations used are as follows: [1] From R&D systems, SDF-1α (stromal derived factor-1 alpha) at 100 ng/ml, TRANCE (TNF-related activation induced cytokine) at 50 ng/ml, FGF1 (fibroblast growth factor acidic) at 10 ng/ml, FGF2 (fibroblast growth factor basic) at 10 ng/ml, BMP4 (bone morphogenetic protein 4) at 100 ng/ml, BMP7 (bone morphogenetic protein 7) at 100 ng/ml, IGF2 (insulin-like growth factor 2) at 100 ng/ml, OSM (Oncostatin M) at 100 ng/ml, NRG1 (Neuregulin-1) at 50 ng/ml, PDGFaa (Platelet derived growth factor a) at 50 ng/ml, PDGFbb (platelet derive growth factor b) at 30 ng/ml, Ang2 (Angiopoeitin 2) at 400 ng/ml, amphiregulin at 100 ng/ml, HMGB 1 (Human high-mobility group box 1 protein) at 50 ng/ml; [2] From Genscript, LIF (Leukemia inhibitory factor) at 20 ng/ml, GM-CSF (Granulocyte macrophage colony stimulating factor) at 25 ng/ml, M-CSF (Macrophage colony stimulating factor) at 50 ng/ml; [3] From Anaspec, PAR1 (Protease activated receptor 1 agonist) at 100 μM; PAR2 (Protease activated receptor 2 agonist; peptide SLIGKV-NH2, Cat. No. 60217-1) at 100 μM; PAR4 (Protease activated receptor […] agonist; peptide AYPGKF-NH2, Cat. No. 60218-1) at 100 μM; [4] From Peprotech, HGF (Hepatocyte Growth Factor) at 100 ng/ml; IL-31 (Interleukin-31) at 50 ng/ml, IL-33 (Interleukin-33) at 50 ng/ml, IL1-a (Interleukin-1 alpha) at 10 ng/ml, CTGF (Connective tissue growth factor) at 20 ng/ml, WISP1 (Wnt-1 inducible signaling pathway protein) at 20 ng/ml, PTHrP ([…] hormone-related protein) at 50 ng/ml, MCP1 (monocyte chemotactic protein-1) at 50 ng/ml; and [5] from Sigma, Fulvestrant at 1 μM. Fresh medium containing ligand and/or inhibitor was added 3-4 days after initial dose, and at Day 7 cells were harvested for western blot analysis.
Cells were plated and treated with ligand for one or 7 days. At the time of harvest, cells were trypsinized and snap frozen for later use. Total RNA was isolated using RNAqueous-4 PCR Kit (Ambion, AM1914). For qPCR on tumor material, the tumor samples were homogenized using a small tissue homogenizer (Ultra-Turrax T8 from IKA-Werke) in 175ul RNA lysis buffer. Homogenization was for 1 minute on ice. RNA was isolated using the SV Total RNA Isolation System (Promega Cat #Z3100) according to the manufactures instructions. Samples were DNase treated using the Turbo DNA-Free kit (Ambion, AM1907) and reverse transcribed using Superscript III (Invitrogen, 18080-044) for qPCR analysis. Taqman primers and Locked-Nucleic Acid probes were designed using ProbeFinder software (Universal Probe library, Roche). For mRNA analysis, real time PCR was performed using the ABI 7900HT series PCR machine. Thermocycle conditions were as follows: 50° C. for 2 minutes, 95° C. for 10 minutes, 95° C. for 15 seconds, 50° C. for 10 seconds, 60° C. for 1 minute. Data was collected over 45 cycles and then normalized to GAPDH and further normalized to the untreated control sample.

HGF: Hepatocyte Growth Factor from Peprotech, used at 100 ng/ml
ACTN1 mRNA fold change (ligand 1 Day): NC (Only changes greater than 3 fold are reported. NC indicates no change.)
CDH1 mRNA fold change (ligand 1 Day): NC (Only changes greater than 3 fold are reported. NC indicates no change.)
CDH2 mRNA fold change (ligand 1 Day): NC (Only changes greater than 3 fold are reported. NC indicates no change.)
ITGB3 mRNA fold change (ligand 1 Day): NC (Only changes greater than 3 fold are reported. NC indicates no change.)
MMP7 mRNA fold change (ligand 1 Day): NC (Only changes greater than 3 fold are reported. NC indicates no change.)
MTA3 mRNA fold change (ligand 1 Day): NC (Only changes greater than 3 fold are reported. NC indicates no change.)
PLAUR mRNA fold change (ligand 1 Day): NC (Only changes greater than 3 fold are reported. NC indicates no change.)
SNAI1 mRNA fold change (ligand 1 Day): NC (Only changes greater than 3 fold are reported. NC indicates no change.)
SNAI2 mRNA fold change (ligand 1 Day): NC (Only changes greater than 3 fold are reported. NC indicates no change.)
SPARC mRNA fold change (ligand 1 Day): NC (Only changes greater than 3 fold are reported. NC indicates no change.)
TWIST1 mRNA fold change (ligand 1 Day): NC (Only changes greater than 3 fold are reported. NC indicates no change.)
VIM mRNA fold change (ligand 1 Day): NC (Only changes greater than 3 fold are reported. NC indicates no change.)
ZEB1 mRNA fold change (ligand 1 Day): NC (Only changes greater than 3 fold are reported. NC indicates no change.)
ZEB2 mRNA fold change (ligand 1 Day): NC (Only changes greater than 3 fold are reported. NC indicates no change.)
ACTN1 mRNA fold change (ligand 7 Day): NC (Only changes greater than 3 fold are reported. NC indicates no change.)
CDH1 mRNA fold change (ligand 7 Day): NC (Only changes greater than 3 fold are reported. NC indicates no change.)
CDH2 mRNA fold change (ligand 7 Day): NC (Only changes greater than 3 fold are reported. NC indicates no change.)
ITGB3 mRNA fold change (ligand 7 Day): 3.57 fold
MMP7 mRNA fold change (ligand 7 Day): NC (Only changes greater than 3 fold are reported. NC indicates no change.)
MTA3 mRNA fold change (ligand 7 Day): NC (Only changes greater than 3 fold are reported. NC indicates no change.)
PLAUR mRNA fold change (ligand 7 Day): NC (Only changes greater than 3 fold are reported. NC indicates no change.)
SNAI1 mRNA fold change (ligand 7 Day): NC (Only changes greater than 3 fold are reported. NC indicates no change.)
SNAI2 mRNA fold change (ligand 7 Day): NC (Only changes greater than 3 fold are reported. NC indicates no change.)
SPARC mRNA fold change (ligand 7 Day): −5.41 fold
TWIST1 mRNA fold change (ligand 7 Day): 612 fold
VIM mRNA fold change (ligand 7 Day): NC (Only changes greater than 3 fold are reported. NC indicates no change.)
ZEB1 mRNA fold change (ligand 7 Day): NC (Only changes greater than 3 fold are reported. NC indicates no change.)
ZEB2 mRNA fold change (ligand 7 Day): NC (Only changes greater than 3 fold are reported. NC indicates no change.)
